Molecules are shown by their SMILES.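 Values below derive from 48-hour exposures of cells grown in 96-well plates, with endpoints linearly interpolated between the two concentrations bracketing the appropriate inhibition level. Definition used: TGI = concentration required for complete inhibition of growth.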

In the first assay the test system is NCI-H226 lung. Put plainly: NCI anticancer screen, dose series, 48 h.
In turn, `CCOC(=O)C1(C(=O)OCC)Nc2cccnc2N(C)N1` yielded a TGI of 35.3 µM.

The subject of another assay is NCI-H23 lung. As to the kind of experiment: NCI anticancer screen, dose series, 48 h.
`CCN(CC)CCC(=O)c1ccc(Oc2ccc(Cl)cc2)cc1` registered a TGI of 34 µM.
Still for that read-out and setting: under `CC1CNc2ccccc2N=C1NN` (stereo unspecified) stands over 100 µM; under `COc1ccc(/C=C(/C#N)C(N)=O)cc1OC`, over 100 µM.
The same measure, in the same setting: under `CCOC(=O)C1(C(=O)OCC)Nc2cccnc2N(C)N1` stands 42.1 µM.

Another assay deals with NCI-H460 lung. Put plainly: NCI anticancer screen, dose series, 48 h.
`CCN(CC)CCC(=O)c1ccc(Oc2ccc(Cl)cc2)cc1` gave a TGI of 29.2 µM.
Still for that read-out and setting: with `CC1CNc2ccccc2N=C1NN` (stereo unspecified) the figure was over 100 µM.
On the same count and under the same terms, with `COc1ccc(/C=C(/C#N)C(N)=O)cc1OC` the figure was over 100 µM; with `CCOC(=O)C1(C(=O)OCC)Nc2cccnc2N(C)N1`, over 100 µM.

The next assay concerns NCI-H522 lung. As to the kind of experiment: NCI anticancer screen, dose series, 48 h.
In the case of `CCN(CC)CCC(=O)c1ccc(Oc2ccc(Cl)cc2)cc1`, the TGI came to 38 µM.
Same read-out and setting: with `CC1CNc2ccccc2N=C1NN` (stereo unspecified) the figure was over 100 µM; with `COc1ccc(/C=C(/C#N)C(N)=O)cc1OC`, over 100 µM.

The subject of the next assay is NCI/ADR-RES ovarian. Put plainly: NCI anticancer screen, dose series, 48 h.
Compound `CCN(CC)CCC(=O)c1ccc(Oc2ccc(Cl)cc2)cc1` yielded a TGI of 56.7 µM.
Same read-out and setting: with `CC1CNc2ccccc2N=C1NN` (stereo unspecified) the figure was over 100 µM; with `COc1ccc(/C=C(/C#N)C(N)=O)cc1OC`, over 100 µM; with `CCOC(=O)C1(C(=O)OCC)Nc2cccnc2N(C)N1`, 43.8 µM.

The next assay has as its system OVCAR-3 ovarian. As to the kind of experiment: NCI anticancer screen, dose series, 48 h.
In the case of `CCN(CC)CCC(=O)c1ccc(Oc2ccc(Cl)cc2)cc1`, the TGI was 28.6 µM.
On the same count and under the same terms, with `CC1CNc2ccccc2N=C1NN` (stereo unspecified) the figure was over 100 µM.
In the case of `COc1ccc(/C=C(/C#N)C(N)=O)cc1OC`, the TGI is over 100 µM.
`CCOC(=O)C1(C(=O)OCC)Nc2cccnc2N(C)N1` registered a TGI of 41.5 µM.

The subject of another assay is OVCAR-4 ovarian. Put plainly: NCI anticancer screen, dose series, 48 h.
Compound `CCN(CC)CCC(=O)c1ccc(Oc2ccc(Cl)cc2)cc1` registered a TGI of 36.1 µM.
The same measure, in the same setting: with `CC1CNc2ccccc2N=C1NN` (stereo unspecified) the figure was over 100 µM; with `COc1ccc(/C=C(/C#N)C(N)=O)cc1OC`, over 100 µM; with `CCOC(=O)C1(C(=O)OCC)Nc2cccnc2N(C)N1`, 34.3 µM.

For the next assay, the system named is OVCAR-5 ovarian. As to the kind of experiment: NCI anticancer screen, dose series, 48 h.
In the case of `CCN(CC)CCC(=O)c1ccc(Oc2ccc(Cl)cc2)cc1`, the TGI turned out to be 29.9 µM.
The same measure, in the same setting: under `CC1CNc2ccccc2N=C1NN` (stereo unspecified) stands over 100 µM; under `COc1ccc(/C=C(/C#N)C(N)=O)cc1OC`, over 100 µM.

A further assay concerns OVCAR-8 ovarian. As to the kind of experiment: NCI anticancer screen, dose series, 48 h.
For the compound `CCN(CC)CCC(=O)c1ccc(Oc2ccc(Cl)cc2)cc1`, the TGI came to 44.9 µM.
The same measure, in the same setting: with `CC1CNc2ccccc2N=C1NN` (stereo unspecified) the figure was over 100 µM; with `COc1ccc(/C=C(/C#N)C(N)=O)cc1OC`, over 100 µM.
On the same count and under the same terms, under `CCOC(=O)C1(C(=O)OCC)Nc2cccnc2N(C)N1` stands 40 µM.

In another assay the test system is PC-3 prostate. Put plainly: NCI anticancer screen, dose series, 48 h.
Consider `CCN(CC)CCC(=O)c1ccc(Oc2ccc(Cl)cc2)cc1`, for which the TGI was 28.3 µM.
On the same count and under the same terms, with `CC1CNc2ccccc2N=C1NN` (stereo unspecified) the figure was over 100 µM; with `COc1ccc(/C=C(/C#N)C(N)=O)cc1OC`, over 100 µM.
The same measure, in the same setting: under `CCOC(=O)C1(C(=O)OCC)Nc2cccnc2N(C)N1` stands 67.5 µM.

Another assay concerns RPMI-8226 leukemia. Put plainly: NCI anticancer screen, dose series, 48 h.
On to `CCN(CC)CCC(=O)c1ccc(Oc2ccc(Cl)cc2)cc1`, for which the TGI is 16.3 µM.
As for `CC1CNc2ccccc2N=C1NN` (stereo unspecified), the TGI was over 100 µM.
The compound `COc1ccc(/C=C(/C#N)C(N)=O)cc1OC` registered a TGI of over 100 µM.
Still for that read-out and setting: with `CCOC(=O)C1(C(=O)OCC)Nc2cccnc2N(C)N1` the figure was 40.8 µM.

The subject of the next assay is RXF 393 renal. Put plainly: NCI anticancer screen, dose series, 48 h.
With `CCN(CC)CCC(=O)c1ccc(Oc2ccc(Cl)cc2)cc1`, the TGI stood at 43.2 µM.
With `CC1CNc2ccccc2N=C1NN` (stereo unspecified), the TGI is over 100 µM.
Still for that read-out and setting: under `COc1ccc(/C=C(/C#N)C(N)=O)cc1OC` stands over 100 µM; under `CCOC(=O)C1(C(=O)OCC)Nc2cccnc2N(C)N1`, 33.3 µM.

A further assay concerns SF-268 CNS. As to the kind of experiment: NCI anticancer screen, dose series, 48 h.
In turn, `CCN(CC)CCC(=O)c1ccc(Oc2ccc(Cl)cc2)cc1` displayed a TGI of 34.5 µM.
Still for that read-out and setting: with `CC1CNc2ccccc2N=C1NN` (stereo unspecified) the figure was over 100 µM; with `COc1ccc(/C=C(/C#N)C(N)=O)cc1OC`, over 100 µM; with `CCOC(=O)C1(C(=O)OCC)Nc2cccnc2N(C)N1`, over 100 µM.

Another assay relates to SF-295 CNS. Put plainly: NCI anticancer screen, dose series, 48 h.
The compound `CCN(CC)CCC(=O)c1ccc(Oc2ccc(Cl)cc2)cc1` came in with a TGI of 32.4 µM.
Still for that read-out and setting: with `CC1CNc2ccccc2N=C1NN` (stereo unspecified) the figure was over 100 µM; with `COc1ccc(/C=C(/C#N)C(N)=O)cc1OC`, over 100 µM; with `CCOC(=O)C1(C(=O)OCC)Nc2cccnc2N(C)N1`, over 100 µM.

For another assay, the system named is SF-539 CNS. As to the kind of experiment: NCI anticancer screen, dose series, 48 h.
`CCN(CC)CCC(=O)c1ccc(Oc2ccc(Cl)cc2)cc1` registered a TGI of 42.1 µM.
On the same count and under the same terms, with `CC1CNc2ccccc2N=C1NN` (stereo unspecified) the figure was over 100 µM; with `COc1ccc(/C=C(/C#N)C(N)=O)cc1OC`, over 100 µM.
On the same count and under the same terms, under `CCOC(=O)C1(C(=O)OCC)Nc2cccnc2N(C)N1` stands 30.7 µM.

The next assay concerns SK-MEL-2 melanoma. Put plainly: NCI anticancer screen, dose series, 48 h.
As to `CCN(CC)CCC(=O)c1ccc(Oc2ccc(Cl)cc2)cc1`, the TGI worked out at 32 µM.
